Each structure is given as a SMILES string. Counter-ions that a name gives are not always drawn.

The test system of this test is NQO1 specific enzyme activity in BEAS-2B cells (marker for NRF2 activation). Put plainly: BEAS-2B NQO1 MTT Assay. The format is cell-based. As to conditions: Homo sapiens, BEAS-2B, 48 h, NQO1 specific activity induction, 48 hours with compound. The method in brief: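 Cells plated overnight at 37° C., 5% CO2, then exposed to compound for 48 hours. NQO1 activity read in crude lysates with MTT cocktail as kinetic absorbance at 570 nm over 30 minutes. pEC50 from Delta OD/min versus log concentration with a 3-parameter fit.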
On to `Cc1ccc(C(OCc2cn(Cc3cccc(Cn4cc(CCCCO)nn4)c3)nn2)C(C)(C)C(=O)O)cc1CN1C[C@@H](C)Oc2ccccc2S1(=O)=O` (stereo partly drawn) [Example 42, 3-((1-(3-((4-(4-Hydroxybutyl)-1H-1,2,3-triazol-1-yl)methyl)benzyl)-1H-1,2,3-triazol-4-yl)methoxy)-2,2-dimethyl-3-(4-methyl-3-(((R)-4-methyl-1,1-dioxido-3,4-dihydro-2H-benzo[b][1,4,5]oxathiazepin-2-yl)methyl)phenyl)propanoic acid], for which the EC50 (in general, the concentration at which the effect is half-maximal) was 10 to 100 nM. The result for `COCCOCCn1cc(CO[C@@H](c2ccc(C)c(CN3C[C@@H](C)Oc4ccccc4S3(=O)=O)c2)C(C)(C)C(=O)O)nn1` [Example 71, (3S)-((1-(2-(2-methoxyethoxy)ethyl)-1H-1,2,3-triazol-4-yl)methoxy)-2,2-dimethyl-3-(4-methyl-3-(((R)-4-methyl-1,1-dioxido-3,4-dihydro-2H-benzo[b][1,4,5]oxathiazepin-2-yl)methyl)phenyl)propanoic acid] reads 10 to 100 nM. The result for `Cc1ccc(C(OCc2cn(Cc3cccc(Cn4cc(CO)nn4)c3)nn2)C(C)(C)C(=O)O)cc1CN1C[C@@H](C)Oc2ccccc2S1(=O)=O` (stereo partly drawn) [Example 39, 3-((1-(3-((4-(Hydroxymethyl)-1H-1,2,3-triazol-1-yl)methyl)benzyl)-1H-1,2,3-triazol-4-yl)methoxy)-2,2-dimethyl-3-(4-methyl-3-(((R)-4-methyl-1,1-dioxido-3,4-dihydro-2H-benzo[b][1,4,5]oxathiazepin-2-yl)methyl)phenyl)propanoic acid] reads 10 to 100 nM; that for `CC[C@@H]1CN(Cc2cc([C@H](OCc3cn(CC)nn3)C(C)(C)C(=O)O)ccc2C)Cc2ccccc2O1` [Example 118], 1000 to 10000 nM; that for `CC[C@@H]1CN(Cc2cc(C(OCc3cn(Cc4cccc(-c5cccc(C(=O)O)c5)c4)nn3)C(C)(C)C(=O)O)ccc2C)S(=O)(=O)c2ccccc2O1` (stereo partly drawn) [Example 23, 3′-((4-((2-Carboxy-1-(3-(((R)-4-ethyl-1,1-dioxido-3,4-dihydro-2H-benzo[b][1,4,5]oxathiazepin-2-yl)methyl)-4-methylphenyl)-2-methylpropoxy)methyl)-1H-1,2,3-triazol-1-yl)methyl)-[1,1′-biphenyl]-3-carboxylic acid], 10 to 100 nM. The result for `Cc1ccc([C@H](OCc2cn(C)nn2)C(C)(C)C(=O)O)cc1CN1Cc2ncccc2O[C@H](C(C)C)C1` [Example 112, (S)-3-(3-(((R)-2-isopropyl-2,3-dihydropyrido[2,3-f][1,4]oxazepin-4(5H)-yl)methyl)-4-methylphenyl)-2,2-dimethyl-3-((1-methyl-1H-1,2,3-triazol-4-yl)-methoxy)propanoic acid, trifluoroacetate] reads 10 to 100 nM. Regarding `CC[C@H]1Cc2cccnc2CN(Cc2cc([C@@H](OCc3cn(CC)nn3)C(C)(C)C(=O)O)ccc2C)C1` [Example 115, (R)-methyl 3-((1-ethyl-1H-1,2,3-triazol-4-yl)-methoxy)-3-(3-((S)-6-ethyl-6,7-dihydro-5H-pyrido[2,3-c]azepin-8(9H)-yl)methyl)-4-methylphenyl)-2,2-dimethyl-propanoic acid, trifluoroacetate], the EC50 fell in the range of 1 to 10 nM.

On to `CCCC(=O)N1CCC(Cn2cc(COC(c3ccc(C)c(CN4C[C@@H](C)Oc5ccccc5S4(=O)=O)c3)C(C)(C)C(=O)O)nn2)CC1` (stereo partly drawn) [Example 34, 3-((1-((1-Butyrylpiperidin-4-yl)methyl)-1H-1,2,3-triazol-4-yl)methoxy)-2,2-dimethyl-3-(4-methyl-3-(((R)-4-methyl-1,1-dioxido-3,4-dihydro-2H-benzo[b][1,4,5]oxathiazepin-2-yl)methyl)phenyl)propanoic acid], for which the EC50 lay within 10 to 100 nM. For `CCn1cc(CO[C@H](c2ccc(C)c(CN3C[C@H](C)Cc4ncccc4S3(=O)=O)c2)C(C)(C)C(=O)O)nn1` [Example 68, (3R)-((1-ethyl-1H-1,2,3-triazol-4-yl)methoxy)-2,2-dimethyl-3-(4-methyl-3-(((R)-4-methyl-1,1-dioxido-4,5-dihydropyrido[2,3-f][1,2]thiazepin-2(3H)-yl)methyl)phenyl)propanoic acid], the EC50 is 10 to 100 nM. The value for `Cc1ccc(C(OCc2cn(CC3CCN(C(=O)C4CCOCC4)CC3)nn2)C(C)(C)C(=O)O)cc1CN1C[C@@H](C)Oc2ccccc2S1(=O)=O` (stereo partly drawn) [Example 35, 2,2-Dimethyl-3-(4-methyl-3-(((R)-4-methyl-1,1-dioxido-3,4-dihydro-2H-benzo[b][1,4,5]oxathiazepin-2-yl)methyl)phenyl)-3-((1-((1-(tetrahydro-2H-pyran-4-carbonyl)piperidin-4-yl)methyl)-1H-1,2,3-triazol-4-yl)methoxy)propanoic acid] was 100 to 1000 nM; that for `CC[C@@H]1CN(Cc2cc([C@H](OCc3cn(CC)nn3)C(C)(C)C(=O)O)ccc2C)Cc2ncccc2O1` [Example 114, (S)-methyl 3-((1-ethyl-1H-1,2,3-triazol-4-yl)-methoxxy)-3-(3-(((R)-2-ethyl-2,3-dihydropyrido[2,3-f][1,4]oxazepin-4(5H)-yl)methyl)-4-methylphenyl)-2,2-dimethyl-propanoic acid, trifluoroacetate] was 100 to 1000 nM; that for `CC[C@@H]1CN(Cc2cc([C@H](OCc3cn(CCOCCOC)nn3)C(C)(C)C(=O)O)ccc2C)S(=O)(=O)c2ccccc2O1` [Example 107, 3-(3-(((R)-4-ethyl-1,1-dioxido-3,4-dihydro-2H-benzo[b][1,4,5]oxathiazepin-2-yl)methyl)-4-methylphenyl)-3-((1-(2-(2-methoxyethoxy)ethyl)-1H-1,2,3-triazol-4-yl)methoxy)-2,2-dimethylpropanoic acid] was less than 1 nM. The result for `CC[C@@H]1CN(Cc2cc([C@@H](OCc3cn(CC)nn3)C(C)(C)C(=O)O)ccc2C)S(=O)(=O)c2ncccc2O1` [Example 82, (R)-3-(3-(((R)-4-ethyl-1,1-dioxido-3,4-dihydro-2H-pyrido[3,2-b][1,4,5]oxathiazepin-2-yl)methyl)-4-methylphenyl)-3-((1-ethyl-1H-1,2,3-triazol-4-yl)methoxy)-2,2-dimethylpropanoic acid] reads 1 to 10 nM; that for `CC[C@@H]1CN(Cc2cc([C@H](OCc3cn(C)nn3)C(C)(C)C(=O)O)ccc2C)Cc2ncccc2O1` [Example 111, (S)-methyl-3-(3-(((R)-2-ethyl-2,3-dihydropyrido[2,3-f][1,4]oxazepin-4(5H)-yl)methyl)-4-methyl-phenyl)-2,2-dimethyl-3-((1-methyl-1H-1,2,3-triazol-4-yl)-methoxy)-propanoic acid], 100 to 1000 nM. The result for `CC[C@@H]1CN(Cc2cc([C@@H](OCc3cn(C)nn3)C(C)(C)C(=O)O)ccc2C)S(=O)(=O)c2ncccc2O1` [Example 121, (R)-3-(3-(((R)-4-Ethyl-1,1-dioxido-3,4-dihydro-2H-pyrido[3,2-b][1,4,5]oxathiazepin-2-yl)methyl)-4-methylphenyl)-2,2-dimethyl-3-((1-methyl-1H-1,2,3-triazol-4-yl)methoxy)propanoic acid] reads 1 to 10 nM; that for `CCCn1cc(CO[C@H](c2ccc(C)c(CN3C[C@@H](CC)Oc4ccccc4S3(=O)=O)c2)C(C)(C)C(=O)O)nn1` [Example 90, (R)-3-(3-(((R)-4-ethyl-1,1-dioxido-3,4-dihydro-2H-benzo[b][1,4,5]oxathiazepin-2-yl)methyl)-4-methylphenyl)-2,2-dimethyl-3-((1-propyl-1H-1,2,3-triazol-4-yl)methoxy)propanoic acid], less than 1 nM; that for `Cc1ccc(C(OCc2cn(CC3CCN(C(=O)C4CCCCC4)CC3)nn2)C(C)(C)C(=O)O)cc1CN1C[C@@H](C)Oc2ccccc2S1(=O)=O` (stereo partly drawn) [Example 30, 3-((1-((1-(Cyclohexanecarbonyl)piperidin-4-yl)methyl)-1H-1,2,3-triazol-4-yl)methoxy)-2,2-dimethyl-3-(4-methyl-3-(((R)-4-methyl-1,1-dioxido-3,4-dihydro-2H-benzo[b][1,4,5]oxathiazepin-2-yl)methyl)phenyl)propanoic acid], 1 to 10 nM. In the case of `CCn1cc(CO[C@H](c2ccc(C)c(CN3C[C@H](C)Cc4ccccc4S3(=O)=O)c2)C(C)(C)C(=O)O)nn1` [Example 70, (3R)-((1-ethyl-1H-1,2,3-triazol-4-yl)methoxy)-2,2-dimethyl-3-(4-methyl-3-(((R)-4-methyl-1,1-dioxido-4,5-dihydrobenzo[f][1,2]thiazepin-2(3H)-yl)methyl)phenyl)propanoic acid], the EC50 was in the range of 10 to 100 nM. In the case of `CCCn1cc(CO[C@H](c2ccc(C)c(CN3C[C@H](C)Cc4ccc(F)cc4S3(=O)=O)c2)C(C)(C)C(=O)O)nn1` [Example 76, (3R)-(3-(((R)-8-fluoro-4-methyl-1,1-dioxido-4,5-dihydrobenzo[f][1,2]thiazepin-2(3H)-yl)methyl)-4-methylphenyl)-2,2-dimethyl-3-((1-propyl-1H-1,2,3-triazol-4-yl)methoxy)propanoic acid], the EC50 fell in the range of 1 to 10 nM. `Cc1ccc([C@H](OCc2cn(Cc3ccc(Cn4cc(CO[C@@H](c5ccc(C)c(CN6C[C@@H](C)Oc7ccccc7S6(=O)=O)c5)C(C)(C)C(=O)O)nn4)cc3)nn2)C(C)(C)C(=O)O)cc1CN1C[C@@H](C)Oc2ccccc2S1(=O)=O` (relative stereo) [Example 46, (R,rel-(3S,3'S))-3,3′-(((1,1′-(1,4-phenylenebis(methylene))bis(1H-1,2,3-triazole-4,1-diyl))bis(methylene))bis(oxy))bis(2,2-dimethyl-3-(4-methyl-3-(((R)-4-methyl-1,1-dioxido-3,4-dihydro-2H-benzo[b][1,4,5]oxathiazepin-2-yl)methyl)phenyl)propanoic acid)]: the EC50 lay in the range of 10 to 100 nM. The value for `Cc1ccc(C(OCc2cn(CC3CCN(C(=O)OC(C)(C)C)CC3)nn2)C(C)(C)C(=O)O)cc1CN1C[C@@H](C)Oc2ccccc2S1(=O)=O` (stereo partly drawn) [Example 20, 3-((1-((1-(Tert-butoxycarbonyl)piperidin-4-yl)methyl)-1H-1,2,3-triazol-4-yl)methoxy)-2,2-dimethyl-3-(4-methyl-3-(((R)-4-methyl-1,1-dioxido-3,4-dihydro-2H-benzo[b][1,4,5]oxathiazepin-2-yl)methyl)phenyl)propanoic acid] was 1 to 10 nM.
